From article PMC6630837 (Pharmaceuticals, 2019)

Columns and labels:
[1] = system: SH-SY5Y human neuroblastoma cells; experiment: Neuroprotection against H2O2-induced toxicity, MTT cell viability assay; format: cell-based; conditions: 50 μM compound, 100 μM H2O2, 24 h, 37 °C
Source text: Neuroprotective activity assays against H2O2-induced toxicity. On the basis of previously described protocols, the flavones and analogues herein synthesized were screened for their neuroprotective effects against H2O2-induced oxidative stress and neuronal damage in SH-SY5Y human neuroblastoma cells by means of a thiazolyl blue tetrazolium bromide (MTT) reduction-based cell viability assay.
Neuroprotective assays in human neuroblastoma (SH-SY5Y) cells. […] Differences were considered significant when P < 0.05.

[2] = system: SH-SY5Y neuroblastoma cells; experiment: Cytotoxic activity of compounds alone, MTT cell viability assay; conditions: 50 μM compound alone, 24 h, 37 °C, 0.5% DMSO, SH-SY5Y
Method: Neuroprotective assays in human neuroblastoma (SH-SY5Y) cells. SH-SY5Y cells were grown in Dulbecco’s Modified Eagle Medium (DMEM, Gibco, Life Technologies) supplemented with 10% fetal bovine serum (FBS, Biochrom GmbH) and 1% Penicillin-Streptomycin (Gibco, Life Technologies) in a humidified incubator at 37 °C, 5% CO2. For the neuroprotective activity assay, undifferentiated SGSY-5Y cells were plated onto 96-well flat-bottomed microtiter plates at a density of 1 × 10^4 cells/well in DMEM supplemented with 2% FBS and preincubated for 24 h at 37 °C, 5% CO2. Compounds (stored as 10 mM solutions in DMSO at −20 °C) were then added to achieve a final concentration of 50 μM and, after 30 min, cells were incubated in the presence or absence of 20 μM Aβ protein fragment 1-42 (Sigma-Aldrich, dissolved in DMSO and stored in 2 mM aliquots at −20 °C) or 100 μM of H2O2 (Sigma-Aldrich, dissolved to 10 mM in 0.9% NaCl aqueous solution immediately prior to the assay) overnight at 37 °C, 5% CO2. […] The following morning, 20 μL of a 5 mg/mL solution of 3-(4,5-dimethylthiazol-2-yl)-2,5-diphenyltetrazolium bromide (MTT, Sigma-Aldrich) in PBS (Gibco, Life Technologies) was added to each well and the plates were further incubated for 4 h at 37 °C, followed by the addition of DMSO (200 μL) to each well in order to dissolve the resulting formazan crystals. After 2 h incubating at 37 °C, the optical density (OD) at 540 nm (with a 620 nm reference filter) was measured in an Amersham Biosciences Biotrak II Plate Reader. The percentage of MTT reduction was determined according to Equation (1). […] Differences between experimental conditions were compared for statistical significance by one-way ANOVA followed by a Tukey’s post-test, an analysis carried out using GraphPad Prism Software (LA Jolla, CA, USA). Differences were considered significant when P < 0.05. In order to exclude direct MTT reduction, compounds were also tested in (a) the absence of cells and (b) in the absence of both cells and culture medium, using the same experimental conditions described above. (2) MTT Reduction (% of Control)=[ODsample−ODmedium/ODcell control−ODmedium] × 100 […]
Tabl e S2. Cytotoxic activity of each compound assessed in SH-SY5Y neuroblastoma cells via an MTT cell viability assay.a Comp ound Nr. MTT reduction (% control) p-va l u e vs . untreated cell control (unpai red t-t es t) […]
a Cells were incubated for 24 h at 37 °C, in the presence (50 μM) or absence of each compound.

[3] = biological target: acetylcholinesterase (AChE) (Electrophorus electricus, UniProt O42275); experiment: Acetylcholinesterase inhibition, Ellman's colorimetric assay; format: biochemical; conditions: 100 µM compound; read-out: AChE inhibitory efficacy (percentage of inhibition)
Chain of acetylcholinesterase (AChE) (O42275 24-633): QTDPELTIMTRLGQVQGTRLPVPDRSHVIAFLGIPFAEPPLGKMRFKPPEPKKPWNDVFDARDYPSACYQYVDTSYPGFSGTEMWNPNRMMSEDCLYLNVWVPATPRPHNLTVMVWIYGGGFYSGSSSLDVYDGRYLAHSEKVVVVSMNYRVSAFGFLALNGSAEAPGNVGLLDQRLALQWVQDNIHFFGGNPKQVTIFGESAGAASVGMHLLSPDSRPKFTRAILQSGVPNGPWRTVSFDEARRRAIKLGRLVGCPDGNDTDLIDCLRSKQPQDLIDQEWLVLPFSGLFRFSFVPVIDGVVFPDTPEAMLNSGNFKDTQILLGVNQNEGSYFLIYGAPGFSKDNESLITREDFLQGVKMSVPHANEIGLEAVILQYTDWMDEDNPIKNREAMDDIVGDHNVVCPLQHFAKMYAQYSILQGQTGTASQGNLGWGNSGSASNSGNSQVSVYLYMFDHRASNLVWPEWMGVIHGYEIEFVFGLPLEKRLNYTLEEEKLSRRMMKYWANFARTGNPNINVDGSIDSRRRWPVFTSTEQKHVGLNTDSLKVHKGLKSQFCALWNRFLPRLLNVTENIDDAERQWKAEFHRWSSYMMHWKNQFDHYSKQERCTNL
Method: For cholinesterase inhibition tests (acetylcholinesterase (AChE, electrophorus
was kept within 1.25% cuvette concentration.
AChE and at 18.2 µM concentration for BuChE. […]

[4] = Cell viability (MTT) assay in Caco-2 cells; format: cell-based, human; conditions: human; Caco-2 cells, 0.1 μM to 100 μM; read-out: IC50 (cytotoxicity)
Method: (§1) Cell viability assay in human epithelial colorectal adenocarcinoma (Caco-2) and human liver hepatocellular (HepG2) cells. Caco-2 and HepG2 Cells were cultured in DMEM-Dulbecco’s modified Eagle’s medium (Sigma-Aldrich) supplemented with 10% (v/v) inactivated fetal bovine serum (PAA Laboratories GmbH), 2 mM L-glutamine (Sigma-Aldrich), 100 U/mL penicillin and 100 μg/mL streptomycin (Sigma-Aldrich), in a humidified incubator at 37 °C with a 5% CO2 atmosphere. Cells (3 × 10^4 cells/well) were seeded into 96-well plates and incubated at 37 °C in 5% CO2 atmosphere. After 24 h, compounds were added at different concentrations (0.1–100 μM) and incubated in the same conditions. DMSO controls were performed to evaluate a possible solvent cytotoxicity, while pure DMSO was used as a cytotoxic drug. After the established incubation time with compounds, MTT (5 mg/mL) in PBS (Sigma-Aldrich) was added (10 μL) to each well. After 3 h incubation at 37 °C, in 5% CO2, the supernatant was removed. The formazan crystals were solubilized using ethanol/DMSO (1:1) (100 μL), and the absorbance values were determined at 570 nm on the microplate reader Victor3 from PerkinElmer Life Sciences.

[5] = system: human epithelial colorectal adenocarcinoma (Caco-2) cells; experiment: Cell viability (MTT) assay in Caco-2 cells; format: cell-based; conditions: at 100 μM
Method: as §1

SMILES: O=c1cc(-c2ccc(N3CCOCC3)cc2)oc2c([C@@H]3O[C@H](CO)[C@@H](O)[C@H](O)[C@H]3O)c(O)cc(O)c12 [Compound 19, 8-(β-D-Glucopyranosyl)-5,7-dihydroxy-4′-(morpholin-4-yl)flavone]
- Neuroprotective effect against H2O2-induced toxicity (MTT cell viability) [1]: able to produce statistically significant differences when compared to H2O2 controls
- Neuroprotective effect against H2O2-induced toxicity (MTT cell viability) ([1]; listed as 37): fully rescued
- MTT reduction (% control) [2]: 138.5 ± 3.6%
- inhibition at 100 µM [3]: 18%
- IC50 [4]: ≥ 100 µM
- Cytotoxicity towards Caco-2 cells [5]: did not show any cytotoxicity
